{
  "source": "PubChem BioAssay (NCI)",
  "assay_in_all_cases": "NCI tumour cell line growth inhibition, 48 h",
  "key": {"[1]": {"test_system": "UACC-257 melanoma"}, "[2]": {"test_system": "SF-268 CNS"}, "[3]": {"test_system": "NCI-H522 lung"}, "[4]": {"test_system": "SK-MEL-2 melanoma"}, "[5]": {"test_system": "BT-549 breast"}, "[6]": {"test_system": "SK-OV-3 ovarian"}, "[7]": {"test_system": "U251 CNS"}, "[8]": {"test_system": "OVCAR-3 ovarian"}, "[9]": {"test_system": "MALME-3M melanoma"}, "[10]": {"test_system": "UO-31 renal"}, "[11]": {"test_system": "HCC-2998 colon"}, "[12]": {"test_system": "DU-145 prostate"}, "[13]": {"test_system": "ACHN renal"}, "[14]": {"test_system": "RXF 393 renal"}, "[15]": {"test_system": "MCF7 breast"}, "[16]": {"test_system": "OVCAR-8 ovarian"}, "[17]": {"test_system": "OVCAR-4 ovarian"}, "[18]": {"test_system": "SR leukemia"}, "[19]": {"test_system": "MDA-MB-435"}, "[20]": {"test_system": "HOP-92 NSCLC"}, "[21]": {"test_system": "EKVX NSCLC"}, "[22]": {"test_system": "IGROV1 ovarian"}, "[23]": {"test_system": "TK-10 renal"}, "[24]": {"test_system": "RPMI-8226 leukemia"}, "[25]": {"test_system": "SW-620 colon"}, "[26]": {"test_system": "CCRF-CEM leukemia"}, "[27]": {"test_system": "SNB-75 CNS"}, "[28]": {"test_system": "HOP-62 NSCLC"}, "[29]": {"test_system": "SF-295 CNS"}, "[30]": {"test_system": "M14 melanoma"}, "[31]": {"test_system": "A549 NSCLC"}, "[32]": {"test_system": "786-0 renal"}, "[33]": {"test_system": "PC-3 prostate"}, "[34]": {"test_system": "UACC-62 melanoma"}, "[35]": {"test_system": "NCI-H460 lung"}, "[36]": {"test_system": "HL-60(TB) leukemia"}, "[37]": {"test_system": "SK-MEL-5 melanoma"}, "[38]": {"test_system": "NCI-H226 lung"}, "[39]": {"test_system": "NCI/ADR-RES ovarian"}, "[40]": {"test_system": "OVCAR-5 ovarian"}, "[41]": {"test_system": "A498 renal"}, "[42]": {"test_system": "MDA-N"}, "[43]": {"test_system": "HT29 colon"}, "[44]": {"test_system": "SF-539 CNS"}, "[45]": {"test_system": "MDA-MB-231 breast"}, "[46]": {"test_system": "KM12 colon"}, "[47]": {"test_system": "HCT-15 colon"}, "[48]": {"test_system": "HCT-116 colon"}, "[49]": {"test_system": "SN12C renal"}, "[50]": {"test_system": "HS 578T breast"}, "[51]": {"test_system": "CAKI-1 renal"}, "[52]": {"test_system": "SK-MEL-28 melanoma"}, "[53]": {"test_system": "NCI-H23 lung"}, "[54]": {"test_system": "COLO 205 colon"}, "[55]": {"test_system": "T-47D breast"}, "[56]": {"test_system": "MOLT-4 leukemia"}},
  "note": "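Five compound concentrations were applied to cells in 96-well plates for 48 hours; endpoints were derived by simple linear interpolation of the resulting dose-response curve. TGI: concentration producing complete growth inhibition.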",
  "data": [
    {"smiles": "Cn1c(=O)c2sc3cc4c(cc3c2c2ccccc21)sc1c(=O)n(C)c2ccccc2c14", "values": [
      {"measurement": "TGI", "setting": "[1]", "value": "> 100", "unit": "µM"},
      {"measurement": "TGI", "setting": "[2]", "value": "> 100", "unit": "µM"},
      {"measurement": "TGI", "setting": "[3]", "value": "> 100", "unit": "µM"},
      {"measurement": "TGI", "setting": "[4]", "value": "> 100", "unit": "µM"},
      {"measurement": "TGI", "setting": "[5]", "value": 46.4, "unit": "µM"},
      {"measurement": "TGI", "setting": "[6]", "value": "> 100", "unit": "µM"},
      {"measurement": "TGI", "setting": "[7]", "value": 43.6, "unit": "µM"},
      {"measurement": "TGI", "setting": "[8]", "value": "> 100", "unit": "µM"},
      {"measurement": "TGI", "setting": "[9]", "value": "> 100", "unit": "µM"},
      {"measurement": "TGI", "setting": "[10]", "value": "> 100", "unit": "µM"},
      {"measurement": "TGI", "setting": "[11]", "value": "> 100", "unit": "µM"},
      {"measurement": "TGI", "setting": "[12]", "value": "> 100", "unit": "µM"},
      {"measurement": "TGI", "setting": "[13]", "value": 54.8, "unit": "µM"},
      {"measurement": "TGI", "setting": "[14]", "value": 45, "unit": "µM"},
      {"measurement": "TGI", "setting": "[15]", "value": "> 100", "unit": "µM"},
      {"measurement": "TGI", "setting": "[16]", "value": "> 100", "unit": "µM"},
      {"measurement": "TGI", "setting": "[17]", "value": "> 100", "unit": "µM"},
      {"measurement": "TGI", "setting": "[18]", "value": "> 100", "unit": "µM"},
      {"measurement": "TGI", "setting": "[19]", "value": "> 100", "unit": "µM"},
      {"measurement": "TGI", "setting": "[20]", "value": 99.1, "unit": "µM"},
      {"measurement": "TGI", "setting": "[21]", "value": "> 100", "unit": "µM"},
      {"measurement": "TGI", "setting": "[22]", "value": "> 100", "unit": "µM"},
      {"measurement": "TGI", "setting": "[23]", "value": "> 100", "unit": "µM"},
      {"measurement": "TGI", "setting": "[24]", "value": "> 100", "unit": "µM"},
      {"measurement": "TGI", "setting": "[25]", "value": "> 100", "unit": "µM"},
      {"measurement": "TGI", "setting": "[26]", "value": "> 100", "unit": "µM"},
      {"measurement": "TGI", "setting": "[27]", "value": 93.6, "unit": "µM"},
      {"measurement": "TGI", "setting": "[28]", "value": 42.3, "unit": "µM"},
      {"measurement": "TGI", "setting": "[29]", "value": 42.6, "unit": "µM"},
      {"measurement": "TGI", "setting": "[30]", "value": "> 100", "unit": "µM"},
      {"measurement": "TGI", "setting": "[31]", "value": "> 100", "unit": "µM"},
      {"measurement": "TGI", "setting": "[32]", "value": "> 100", "unit": "µM"},
      {"measurement": "TGI", "setting": "[33]", "value": "> 100", "unit": "µM"},
      {"measurement": "TGI", "setting": "[34]", "value": "> 100", "unit": "µM"},
      {"measurement": "TGI", "setting": "[35]", "value": "> 100", "unit": "µM"},
      {"measurement": "TGI", "setting": "[36]", "value": "> 100", "unit": "µM"},
      {"measurement": "TGI", "setting": "[37]", "value": "> 100", "unit": "µM"},
      {"measurement": "TGI", "setting": "[38]", "value": "> 100", "unit": "µM"},
      {"measurement": "TGI", "setting": "[39]", "value": "> 100", "unit": "µM"},
      {"measurement": "TGI", "setting": "[40]", "value": "> 100", "unit": "µM"},
      {"measurement": "TGI", "setting": "[41]", "value": "> 100", "unit": "µM"},
      {"measurement": "TGI", "setting": "[42]", "value": "> 100", "unit": "µM"},
      {"measurement": "TGI", "setting": "[43]", "value": "> 100", "unit": "µM"},
      {"measurement": "TGI", "setting": "[44]", "value": "> 100", "unit": "µM"},
      {"measurement": "TGI", "setting": "[45]", "value": 36.8, "unit": "µM"},
      {"measurement": "TGI", "setting": "[46]", "value": "> 100", "unit": "µM"},
      {"measurement": "TGI", "setting": "[47]", "value": "> 100", "unit": "µM"},
      {"measurement": "TGI", "setting": "[48]", "value": "> 100", "unit": "µM"},
      {"measurement": "TGI", "setting": "[49]", "value": "> 100", "unit": "µM"},
      {"measurement": "TGI", "setting": "[50]", "value": "> 100", "unit": "µM"},
      {"measurement": "TGI", "setting": "[51]", "value": "> 100", "unit": "µM"},
      {"measurement": "TGI", "setting": "[52]", "value": "> 100", "unit": "µM"},
      {"measurement": "TGI", "setting": "[53]", "value": "> 100", "unit": "µM"},
      {"measurement": "TGI", "setting": "[54]", "value": "> 100", "unit": "µM"},
      {"measurement": "TGI", "setting": "[55]", "value": "> 100", "unit": "µM"},
      {"measurement": "TGI", "setting": "[56]", "value": "> 100", "unit": "µM"}
    ]}
  ]
}
